From patent publication US8003660B2, “Modulators of muscarinic receptors” (Vertex Pharmaceuticals Incorporated, priority 2006, dated 2011)
Like-named read-outs stand apart in the source and are kept apart here.

How the values were obtained:
Format in all cases: cell-based
M1 muscarinic receptor = molecular target: T1, M1 muscarinic receptor (Homo sapiens, UniProt P11229); test: Functional mobilization of intracellular calcium (FLIPR) in CHO cells expressing M1; conditions: for EC50: CHO cells expressing M1, FLIPR calcium; for Emax: CHO; for M1 Activity: CHO cells expressing M1, FLIPR calcium assay
T1 construct: expressed in transfected cells; host or cells: CHO (M1-CHO)
T1 sequence (P11229 1-460): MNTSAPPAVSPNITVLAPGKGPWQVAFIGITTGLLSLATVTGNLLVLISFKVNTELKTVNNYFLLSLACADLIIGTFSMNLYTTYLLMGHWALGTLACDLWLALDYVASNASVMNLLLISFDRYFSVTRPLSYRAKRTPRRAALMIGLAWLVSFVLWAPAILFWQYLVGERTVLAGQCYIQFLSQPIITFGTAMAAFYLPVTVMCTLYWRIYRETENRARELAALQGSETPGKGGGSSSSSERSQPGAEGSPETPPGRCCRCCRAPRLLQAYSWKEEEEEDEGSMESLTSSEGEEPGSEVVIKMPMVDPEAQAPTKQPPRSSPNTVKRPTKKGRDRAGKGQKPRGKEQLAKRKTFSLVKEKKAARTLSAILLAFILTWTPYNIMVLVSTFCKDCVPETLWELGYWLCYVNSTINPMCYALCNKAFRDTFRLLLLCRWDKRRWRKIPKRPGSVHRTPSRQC
In short: (§1)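 Calcium flux is read on FLIPR over 60 sec at 488/540 nm in muscarinic-receptor CHO lines. Antagonist mode adds carbachol at EC80 after 15 min compound preincubation or with simultaneous co-application. Agonist mode adds compound alone. Cells carry Fluo-3 or Calcium 3 dye in probenecid-containing pH 7.4 buffer, 0.5% DMSO final.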

M2 muscarinic receptor = molecular target: T2, M2 muscarinic receptor (Homo sapiens, UniProt P08172); test: Functional mobilization of intracellular calcium (FLIPR) in CHO cells expressing M2; conditions: for EC50: CHO cells expressing M2, FLIPR calcium; for Emax: CHO; for M2 Activity: CHO cells expressing M2, FLIPR calcium assay
T2 construct: expressed in transfected cells; host or cells: CHO (M2-CHO)
T2 sequence (P08172 1-466): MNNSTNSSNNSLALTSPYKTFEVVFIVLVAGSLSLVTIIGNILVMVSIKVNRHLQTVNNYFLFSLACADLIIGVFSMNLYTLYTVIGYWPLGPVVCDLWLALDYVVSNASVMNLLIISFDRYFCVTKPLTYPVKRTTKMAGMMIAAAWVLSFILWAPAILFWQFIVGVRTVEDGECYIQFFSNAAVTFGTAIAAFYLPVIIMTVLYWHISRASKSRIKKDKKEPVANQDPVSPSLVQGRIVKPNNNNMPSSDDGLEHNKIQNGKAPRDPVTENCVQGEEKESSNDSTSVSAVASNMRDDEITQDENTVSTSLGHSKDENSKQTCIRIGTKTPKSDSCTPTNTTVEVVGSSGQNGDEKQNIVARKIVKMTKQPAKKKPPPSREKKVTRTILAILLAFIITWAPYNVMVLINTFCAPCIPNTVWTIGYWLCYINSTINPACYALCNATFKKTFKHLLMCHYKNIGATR
In short: as §1

M3 muscarinic receptor = molecular target: T3, M3 muscarinic receptor (Homo sapiens, UniProt P20309); test: Functional mobilization of intracellular calcium (FLIPR) in CHO cells expressing M3; conditions: for EC50: CHO cells expressing M3, FLIPR calcium; for Emax: CHO; for M3 Activity: CHO cells expressing M3, FLIPR calcium assay
T3 construct: expressed in transfected cells; host or cells: CHO (M3-CHO)
T3 sequence (P20309 whole entry): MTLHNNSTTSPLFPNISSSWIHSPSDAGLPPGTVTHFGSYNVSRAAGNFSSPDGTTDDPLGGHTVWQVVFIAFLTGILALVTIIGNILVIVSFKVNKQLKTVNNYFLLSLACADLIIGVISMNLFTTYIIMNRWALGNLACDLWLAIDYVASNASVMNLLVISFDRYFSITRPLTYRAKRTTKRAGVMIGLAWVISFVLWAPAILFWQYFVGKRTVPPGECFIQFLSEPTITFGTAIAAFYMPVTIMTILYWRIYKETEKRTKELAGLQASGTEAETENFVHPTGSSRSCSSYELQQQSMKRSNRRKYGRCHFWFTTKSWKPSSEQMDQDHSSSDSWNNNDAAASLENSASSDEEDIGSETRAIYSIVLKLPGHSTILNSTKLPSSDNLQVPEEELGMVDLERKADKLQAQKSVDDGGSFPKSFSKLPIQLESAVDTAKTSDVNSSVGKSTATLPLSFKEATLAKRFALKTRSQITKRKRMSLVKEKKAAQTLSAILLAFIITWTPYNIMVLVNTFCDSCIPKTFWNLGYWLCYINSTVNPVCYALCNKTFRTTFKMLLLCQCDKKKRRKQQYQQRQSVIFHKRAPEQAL
In short: as §1

M4 muscarinic receptor = molecular target: T4, M4 muscarinic receptor (Homo sapiens, UniProt P08173); test: Functional mobilization of intracellular calcium (FLIPR) in CHO cells expressing M4; conditions: for EC50: CHO cells expressing M4, FLIPR calcium; for Emax: CHO; for M4 Activity: CHO cells expressing M4, FLIPR calcium assay
T4 construct: expressed in transfected cells; host or cells: CHO (M4-CHO)
T4 sequence (P08173 1-479): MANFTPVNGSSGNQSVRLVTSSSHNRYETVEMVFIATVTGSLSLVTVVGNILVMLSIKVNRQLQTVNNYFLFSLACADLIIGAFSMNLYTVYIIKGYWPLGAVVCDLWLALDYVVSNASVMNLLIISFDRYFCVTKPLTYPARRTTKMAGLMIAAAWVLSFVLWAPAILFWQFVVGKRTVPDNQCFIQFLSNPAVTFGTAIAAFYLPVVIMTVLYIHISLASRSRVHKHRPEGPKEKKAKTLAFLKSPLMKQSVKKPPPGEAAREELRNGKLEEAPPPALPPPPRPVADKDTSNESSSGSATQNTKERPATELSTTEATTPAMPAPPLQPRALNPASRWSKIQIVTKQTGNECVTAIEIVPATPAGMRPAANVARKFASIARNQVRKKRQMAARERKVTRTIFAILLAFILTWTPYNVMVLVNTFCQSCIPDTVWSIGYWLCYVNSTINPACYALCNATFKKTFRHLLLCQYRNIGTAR
In short: as §1

[1] = 100% = maximum response obtained with the Carbachol control, read-out: M1 Efficacy
[2] = 100% = maximum response obtained with the Carbachol control, read-out: M2 Efficacy
[3] = 100% = maximum response obtained with the Carbachol control, read-out: M3 Efficacy
[4] = 100% = maximum response obtained with the Carbachol control, read-out: M4 Efficacy
[5] = 100% efficacy = maximum response obtained with the Carbachol control

Row | Compound | EC50 (M1 muscarinic receptor) | Emax (M1 muscarinic receptor; [1]) | EC50 (M2 muscarinic receptor) | Emax (M2 muscarinic receptor; [2]) | EC50 (M3 muscarinic receptor) | Emax (M3 muscarinic receptor; [3]) | EC50 (M4 muscarinic receptor) | Emax (M4 muscarinic receptor; [4]) | M1 Activity (M1 muscarinic receptor) | Emax (M1 muscarinic receptor; [5]) | M2 Activity (M2 muscarinic receptor) | Emax (M2 muscarinic receptor; [5]) | M3 Activity (M3 muscarinic receptor) | Emax (M3 muscarinic receptor; [5]) | M4 Activity (M4 muscarinic receptor) | Emax (M4 muscarinic receptor; [5])
1 | CCOCC(=O)N[C@@H]1CCC2(CCN(CCC(C)(C)C)CC2)c2cc(F)ccc21 [compound 63] | < 2 µM | 25 to 100% | < 2 µM | < 25% | > 5 µM | < 25% | < 2 µM | 25 to 100% | – | – | – | – | – | – | – | –
2 | CCN(C(=O)C1CCOCC1)[C@H]1CCC2(CCN(CCC(C)(C)C)CC2)c2ccccc21 [compound 170] | > 5 µM | < 25% | > 5 µM | < 25% | > 5 µM | < 25% | < 2 µM | 25 to 100% | – | – | – | – | – | – | – | –
3 | COCCC(=O)N[C@H]1CCC2(CCN(CCC(C)(C)C)CC2)c2cc(F)ccc21 [compound 215] | – | – | – | – | – | – | – | – | +++ (activity was measured to be less than 2.0 μM) | 25 to 100% | +++ (activity was measured to be less than 2.0 μM) | 25 to 100% | + (activity was measured to be greater than 5.0 μM) | < 25% | +++ (activity was measured to be less than 2.0 μM) | 25 to 100%
4 | CC(=O)N[C@H]1CC2(CCN(CCC(C)CCC=C(C)C)CC2)c2ccccc21 (stereo partly drawn) [compound 282] | – | – | – | – | – | – | – | – | +++ (activity was measured to be less than 2.0 μM) | 25 to 100% | + (activity was measured to be greater than 5.0 μM) | < 25% | + (activity was measured to be greater than 5.0 μM) | < 25% | + (activity was measured to be greater than 5.0 μM) | < 25%
5 | CC(=O)N[C@H]1CC2(CCN(CCC(C)C)CC2)c2ccccc21 [compound 277] | – | – | – | – | – | – | – | – | ++ (activity was measured to be from 2.0 μM to 5.0 μM) | 25 to 100% | + (activity was measured to be greater than 5.0 μM) | < 25% | + (activity was measured to be greater than 5.0 μM) | < 25% | +++ (activity was measured to be less than 2.0 μM) | 25 to 100%
6 | CCN(C(=O)C1CCOC1)[C@H]1CCC2(CCN(CCC(C)(C)C)CC2)c2ccccc21 (stereo partly drawn) [compound 9] | > 5 µM | 25 to 100% | > 5 µM | < 25% | > 5 µM | < 25% | < 2 µM | 25 to 100% | – | – | – | – | – | – | – | –
7 | CC(C)(C)CCN1CCC2(CC[C@@H](N3CCCCC3=O)c3ccc(F)cc32)CC1 [compound 6] | > 5 µM | < 25% | > 5 µM | < 25% | > 5 µM | < 25% | < 2 µM | 25 to 100% | – | – | – | – | – | – | – | –
8 | CC(=O)N[C@H](C)C(=O)N[C@H]1CCC2(CCN(CCC(C)(C)C)CC2)c2cc(F)ccc21 [compound 46] | < 2 µM | 25 to 100% | < 2 µM | 25 to 100% | > 5 µM | < 25% | < 2 µM | 25 to 100% | – | – | – | – | – | – | – | –
9 | CC(=O)N[C@H]1CCC2(CCN(CC(C)C)CC2)c2ccccc21 [compound 104] | 2 to 5 µM | 25 to 100% | > 5 µM | 25 to 100% | > 5 µM | < 25% | 2 to 5 µM | 25 to 100% | – | – | – | – | – | – | – | –
